The values that follow come from patent publication US20230113037A1 (Bayer Aktiengesellschaft, priority 2019, published 2023).

pIC50: −log10 of the molar value. Read-outs that look alike come from different tables or passages of the source.

The term IC50 denotes the concentration that inhibits the measured activity by half. Read a high IC50 as lower potency. What is called pIC50 is the negative decadic logarithm of the IC50, by convention in mol/L.

Experiment [1] addresses T1, AHR (Homo sapiens, UniProt P35869).
T1 construct: U87 MG glioblastoma cells (ATCC #HTB-14) endogenously expressing AHR; endogenous in cells; host or cells: U87 MG glioblastoma cells (ATCC #HTB-14)
T1 sequence (P35869 11-848): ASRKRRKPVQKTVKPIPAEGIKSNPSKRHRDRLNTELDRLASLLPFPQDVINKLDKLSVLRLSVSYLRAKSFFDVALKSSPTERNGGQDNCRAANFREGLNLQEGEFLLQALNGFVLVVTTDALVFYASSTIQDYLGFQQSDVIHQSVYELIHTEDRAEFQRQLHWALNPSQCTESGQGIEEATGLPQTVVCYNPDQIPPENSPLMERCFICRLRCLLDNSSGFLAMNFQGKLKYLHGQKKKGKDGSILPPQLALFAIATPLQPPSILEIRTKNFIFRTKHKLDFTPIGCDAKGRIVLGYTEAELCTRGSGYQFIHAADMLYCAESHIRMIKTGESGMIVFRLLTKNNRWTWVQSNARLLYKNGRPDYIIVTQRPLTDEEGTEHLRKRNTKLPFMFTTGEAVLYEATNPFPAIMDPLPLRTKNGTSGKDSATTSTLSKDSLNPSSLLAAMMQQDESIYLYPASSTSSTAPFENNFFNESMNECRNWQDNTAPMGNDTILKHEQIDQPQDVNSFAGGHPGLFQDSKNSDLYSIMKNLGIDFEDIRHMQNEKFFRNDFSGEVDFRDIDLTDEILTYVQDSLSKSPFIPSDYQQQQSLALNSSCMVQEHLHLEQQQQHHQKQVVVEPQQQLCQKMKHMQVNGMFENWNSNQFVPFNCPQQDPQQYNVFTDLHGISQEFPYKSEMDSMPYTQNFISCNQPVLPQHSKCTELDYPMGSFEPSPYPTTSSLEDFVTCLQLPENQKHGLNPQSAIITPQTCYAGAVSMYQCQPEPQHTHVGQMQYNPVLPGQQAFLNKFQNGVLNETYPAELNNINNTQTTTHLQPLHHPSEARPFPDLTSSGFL
Description: In vitro assay 1: antagonism in human cell line (AHR transactivation, firefly luciferase reporter, kynurenic acid prestimulated). Format: cell-based. The following applies: for IC50: AHR Antagonism Human IC50 [M]. The essentials: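 Antagonism measured as loss of kynurenic acid-driven firefly luciferase from DRE reporter in stably transfected U87 MG cells; constitutive Renilla signal monitors cytotoxicity. Positive/negative control normalization, staurosporine 5 μM with 150 μM kynurenic acid as inhibition control; replicates given as mean or median.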

Experiment [2] concerns the target T2, AHR (Mus musculus, UniProt P30561).
T2 sequence (P30561 1-848 P471L/N533S/M589L): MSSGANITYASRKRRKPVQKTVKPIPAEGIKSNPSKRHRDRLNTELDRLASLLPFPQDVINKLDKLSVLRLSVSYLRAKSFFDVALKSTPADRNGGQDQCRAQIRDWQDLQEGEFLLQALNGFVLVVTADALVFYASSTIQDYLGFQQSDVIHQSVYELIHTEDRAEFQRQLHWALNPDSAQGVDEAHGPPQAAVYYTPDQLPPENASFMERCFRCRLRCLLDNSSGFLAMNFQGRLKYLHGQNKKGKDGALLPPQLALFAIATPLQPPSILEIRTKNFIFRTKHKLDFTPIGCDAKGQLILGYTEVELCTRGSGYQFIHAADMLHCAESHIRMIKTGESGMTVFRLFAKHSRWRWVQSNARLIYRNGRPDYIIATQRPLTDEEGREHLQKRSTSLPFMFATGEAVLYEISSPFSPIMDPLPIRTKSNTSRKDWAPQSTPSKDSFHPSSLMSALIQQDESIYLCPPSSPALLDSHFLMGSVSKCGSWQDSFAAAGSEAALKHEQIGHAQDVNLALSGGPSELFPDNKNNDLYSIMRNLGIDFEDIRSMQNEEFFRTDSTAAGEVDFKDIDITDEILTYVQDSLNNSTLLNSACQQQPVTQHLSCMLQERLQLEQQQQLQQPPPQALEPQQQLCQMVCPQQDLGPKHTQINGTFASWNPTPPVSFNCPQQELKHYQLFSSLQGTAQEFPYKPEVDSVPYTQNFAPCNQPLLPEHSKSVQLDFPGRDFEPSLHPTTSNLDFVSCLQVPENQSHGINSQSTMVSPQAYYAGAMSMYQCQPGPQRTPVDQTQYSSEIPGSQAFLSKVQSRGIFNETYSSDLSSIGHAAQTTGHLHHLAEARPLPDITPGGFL
Description: In vitro assay 3: antagonism in mouse cell line (AHR transactivation, firefly luciferase reporter, kynurenic acid prestimulated). Format: cell-based. The essentials: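 Kynurenic acid-prestimulated mouse reporter cells; stable AHR-inducible firefly luc construct with DRE sites in promoter. No-agonist wells = positive inhibition ctrl. Luminescence normalized to pos/neg ctrls; n>1 reported as mean or median.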

The mark [3] stands for this setting: mouse Hepa 1c1c7 cells, 200 μM kynurenic acid, 20 hours, read-out: AHR Antagonism Mouse IC50.
Setting [4] is: read-out: AHR Antagonism Mouse IC50, mouse Hepa 1c1c7 cells, 200 μM kynurenic acid, 20 hours.

On AHR [1], `Cc1ccccc1-c1nc2c3ccccc3nc(NC3CCNC3=O)n2n1` (single isomer, unassigned) [Example 50, 3-{[2-(2-methylphenyl)[1,2,4]triazolo[1,5-c]quinazolin-5-yl]amino}pyrrolidin-2-one] showed a 50% inhibitory concentration (IC50) of 1.06e-08 M. On AHR [2] (setting [3]), the pIC50 was 7.69.

Compound `Cc1ccccc1-c1nc2c3ccccc3nc(NC3CCNC3=O)n2n1` (single isomer, unassigned) [Example 51, 3-{[2-(2-methylphenyl)[1,2,4]triazolo[1,5-c]quinazolin-5-yl]amino}pyrrolidin-2-one] registered an IC50 against AHR [1] of 3.09e-08 M. For the same compound, on AHR [2] (setting [3]), the pIC50 is 6.88.

`COc1cccc(-c2nc3c4ccccc4nc(N[C@@H](C)C(N)=O)n3n2)c1` (single isomer, unassigned) [Example 86, N^2-[2-(3-methoxyphenyl)[1,2,4]triazolo[1,5-c]quinazolin-5-yl]alaninamide] registered an IC50 against AHR [1] of 5.1e-09 M. For the same compound, the pIC50 at AHR [2] (setting [3]) is 8.25.

Take `COc1cccc(-c2nc3c4ccccc4nc(NC4CNCCNC4=O)n3n2)c1` (single isomer, unassigned) [Example 116, 6-{[2-(3-methoxyphenyl)[1,2,4]triazolo[1,5-c]quinazolin-5-yl]amino}-1,4-diazepan-5-one]: on AHR [1], it took 2.75e-06 M to reach half-maximal inhibition (IC50). On AHR [2] (setting [3]), the negative-log IC50 (pIC50) is 7.13.

Take `COc1cccc(-c2nc3c4ccccc4nc(NC4CNCCNC4=O)n3n2)c1` (single isomer, unassigned) [Example 117, 6-{[2-(3-methoxyphenyl)[1,2,4]triazolo[1,5-c]quinazolin-5-yl]amino}-1,4-diazepan-5-one]: on AHR [1], half-maximal inhibition (IC50) was put at 9.04e-08 M. For the same compound, the pIC50 on AHR [2] (setting [3]) was 7.12.

For `COc1cccc(-c2nc3c4ccccc4nc(NC4CCCNC4=O)n3n2)c1` (single isomer, unassigned) [Example 118, 3-{[2-(3-methoxyphenyl)[1,2,4]triazolo[1,5-c]quinazolin-5-yl]amino}piperidin-2-one], half-maximal inhibition against AHR [1] (IC50) required 6.43e-08 M. Besides, on AHR [2] (setting [3]), the negative-log IC50 (pIC50) was 7.40.

For the compound `COc1cccc(-c2nc3c4ccccc4nc(NC4CCCNC4=O)n3n2)c1` (single isomer, unassigned) [Example 119, 3-{[2-(3-methoxyphenyl)[1,2,4]triazolo[1,5-c]quinazolin-5-yl]amino}piperidin-2-one], the IC50 at AHR [1] was found to be 7.8e-07 M. Moreover, the negative-log IC50 (pIC50) on AHR [2] (setting [3]) is 6.69.

For `COc1cccc(-c2nc3c4ccccc4nc(NC4CCNC4=O)n3n2)c1` (single isomer, unassigned) [Example 120, 3-{[2-(3-methoxyphenyl)[1,2,4]triazolo[1,5-c]quinazolin-5-yl]amino}pyrrolidin-2-one], the concentration for half-maximal inhibition (IC50) against AHR [1] is 6.02e-08 M. In addition, the negative-log IC50 (pIC50) on AHR [2] (setting [3]) is 7.25.

`COc1cccc(-c2nc3c4ccccc4nc(NC4CCNC4=O)n3n2)c1` (single isomer, unassigned) [Example 121, 3-{[2-(3-methoxyphenyl)[1,2,4]triazolo[1,5-c]quinazolin-5-yl]amino}pyrrolidin-2-one] registered an IC50 against AHR [1] of 1.96e-07 M. Besides, the pIC50 at AHR [2] (setting [3]) was 6.56.

On to `COc1cccc(-c2nc3c4ccccc4nc(NC4CCN(C)C4=O)n3n2)c1` (single isomer, unassigned) [Example 122, 3-{[2-(3-methoxyphenyl)[1,2,4]triazolo[1,5-c]quinazolin-5-yl]amino}-1-methylpyrrolidin-2-one], for which the IC50 on AHR [1] was found to be 5.55e-08 M. Moreover, the pIC50 at AHR [2] (setting [3]) was 7.58.

On to `COc1cccc(-c2nc3c4ccccc4nc(NC4CCN(C)C4=O)n3n2)c1` (single isomer, unassigned) [Example 123, 3-{[2-(3-methoxyphenyl)[1,2,4]triazolo[1,5-c]quinazolin-5-yl]amino}-1-methylpyrrolidin-2-one], for which the IC50 at AHR [1] came out at 3.65e-07 M. Moreover, at AHR [2] (setting [3]), the pIC50 was 5.73.

For `COc1cccc(-c2nc3c4cc(F)ccc4nc(NC4CCNC4=O)n3n2)c1` (single isomer, unassigned) [Example 186, 3-{[9-fluoro-2-(3-methoxyphenyl)[1,2,4]triazolo[1,5-c]quinazolin-5-yl]amino}pyrrolidin-2-one], inhibition against AHR [1] was half-maximal at 2.09e-08 M (IC50). In addition, the pIC50 on AHR [2] (setting [3]) is 7.56.

The compound `COc1cccc(-c2nc3c4cc(F)ccc4nc(NC4CCNC4=O)n3n2)c1` (single isomer, unassigned) [Example 187, 3-{[9-fluoro-2-(3-methoxyphenyl)[1,2,4]triazolo[1,5-c]quinazolin-5-yl]amino}pyrrolidin-2-one] came in with an IC50 on AHR [1] of 6.04e-08 M. In addition, the negative-log IC50 (pIC50) on AHR [2] (setting [3]) is 6.49.

`COc1cccc(-c2nc3c4cc(F)ccc4nc(NC4CCCNC4=O)n3n2)c1` (single isomer, unassigned) [Example 188, 3-{[9-fluoro-2-(3-methoxyphenyl)[1,2,4]triazolo[1,5-c]quinazolin-5-yl]amino}piperidin-2-one] showed an IC50 against AHR [1] of 3e-08 M. Also, on AHR [2] (setting [3]), the negative logarithm of the IC50 (pIC50) is 7.30.

As to `COc1cccc(-c2nc3c4cc(F)ccc4nc(NC4CCCNC4=O)n3n2)c1` (single isomer, unassigned) [Example 189, 3-{[9-fluoro-2-(3-methoxyphenyl)[1,2,4]triazolo[1,5-c]quinazolin-5-yl]amino}piperidin-2-one], half-maximal inhibition on AHR [1] (IC50) required 2.61e-07 M. Also, the pIC50 on AHR [2] (setting [3]) was 6.94.

At AHR [1], `COc1cccc(-c2nc3c4c(C)cccc4nc(NC4CCNC4=O)n3n2)c1` (single isomer, unassigned) [Example 190, 3-{[2-(3-methoxyphenyl)-10-methyl[1,2,4]triazolo[1,5-c]quinazolin-5-yl]amino}pyrrolidin-2-one] registered a concentration for half-maximal inhibition (IC50) of 1.54e-07 M. In addition, at AHR [2] (setting [4]), the pIC50 was 6.60.

On AHR [1], `COc1cccc(-c2nc3c4c(C)cccc4nc(NC4CCNC4=O)n3n2)c1` (single isomer, unassigned) [Example 191, 3-{[2-(3-methoxyphenyl)-10-methyl[1,2,4]triazolo[1,5-c]quinazolin-5-yl]amino}pyrrolidin-2-one] came in with an IC50 of 1.96e-07 M. Besides, on AHR [2] (setting [4]), the pIC50 was 5.96.

Consider `O=C1NCCNCC1Nc1nc2cccc(C3CC3)c2c2nc(-c3cccc(F)c3)nn12` (single isomer, unassigned) [Example 300, 6-{[10-cyclopropyl-2-(3-fluorophenyl)[1,2,4]triazolo[1,5-c]quinazolin-5-yl]amino}-1,4-diazepan-5-one], for which, on AHR [1], the IC50 is greater than 2e-05 M. On AHR [2] (setting [3]), the pIC50 is 5.21.

As to `O=C1NCCNCC1Nc1nc2cccc(C3CC3)c2c2nc(-c3cccc(F)c3)nn12` (single isomer, unassigned) [Example 301, 6-{[10-cyclopropyl-2-(3-fluorophenyl)[1,2,4]triazolo[1,5-c]quinazolin-5-yl]amino}-1,4-diazepan-5-one], the pIC50 on AHR [1] (read-out: AHR Antagonism Human IC50) was less than 4.70; at AHR [2] (setting [3]) it was 5.65.

With `CS(=N)(=O)c1ccc(-c2nc3c4ccccc4nc(N[C@@H]4CCCCNC4=O)n3n2)cc1` (single isomer, unassigned) [Example 307], the half-inhibitory concentration (IC50) on AHR [1] amounted to 1.35e-07 M. On AHR [2] (setting [3]), the pIC50 is 7.07.
